Measurements from patent US20110150914A1, “COMPOSITIONS AND METHODS FOR DENGUE VIRUS (DV) TREATMENT AND VACCINATION” (priority 2008, published 2011).

Test system: CD8^+ T cells
Assay: IFN-γ ELISPOT, HLA A*0201 transgenic mice
Assay type: cell-based
Conditions: HLA-A*0201-restricted Jurkat cells as APC, peptide 1 μg/ml, day 7 after 10^11 GE S221
Method: The proteome of the DENV2 strain, S221, was inspected for the presence of peptides predicted to bind HLA A*0201 with high affinity. A total of 68 potential H-2^b binding peptides were identified. HLA A*0201 transgenic mice were infected i.v. with 10^11 GE of the DENV2 strain, S221. Seven days post-infection, splenocytes were harvested and CD8^+ T cells isolated. CD8^+ T cells (1.75×10^5) were stimulated with HLA-A*0201-restricted Jurkat cells and 1 μg/ml of individual S221-derived A*02-predicted binding peptides, and IFN-γ ELISPOT was performed. The data are expressed as the mean number of net spot-forming cells (SFC) per 10^6 CD8^+ T cells. The top 20 predicted epitopes, which includes the two positive peptides identified (indicated with an asterisk), are shown. The criteria for positivity were a stimulation index of ≧2.0, p<0.05 when compared with an irrelevant control peptide, and net SFC/10^6 cells of ≧20.
The proteome of the DENV2 strain, S221, was inspected for the presence of peptides predicted to bind HLA A*0201 with high affinity. A total of 68 potential H-2^b binding peptides were identified. HLA A*0201 transgenic mice were infected intravenously (i.v.) with 10^11 GE of the DENV2 strain, S221. […] Referring to FIG. 11, the data are expressed as the mean number of net spot-forming cells (SFC) per 10^6 CD8^+ T cells. […]

Sequence	IFN-γ ELISPOT positivity
KLAEAIFKL (listed as Dengue virus)	positive
RLITVNPIV	positive
